The supplement of paper PMC10307832

Experiments:
Assay in all cases: relative viability (nuclei count vs DMSO), 5 days (fraction); higher = more cells survive
BAM7 + Tozasertib = compound: CCOC1=CC=CC=C1N=NC2=C(NN(C2=O)C3=NC(=CS3)C4=CC=CC=C4)C [BAM7] + Cc1cc(Nc2cc(N3CCN(C)CC3)nc(Sc3ccc(NC(=O)C4CC4)cc3)n2)n[nH]1 [Tozasertib] (partner 0.1 µM)
Outline: (§1)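 A single step with final 0.05% Triton X-100, 1% formaldehyde and 1 ug/ml Hoechst fixed the cells and stained nuclei 5 days after treatment. Lung cancer cell lines in 1536-well plates had been treated by pin tool the day after seeding with one drug alone or a fixed anchor-drug dose plus five library-drug doses (not always all listed) in √10 steps, and nuclei were counted on 4× images. Relative viability is the ratio of nuclei in treated wells to nuclei in vehicle wells, taken as the median of duplicate plates.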

[1] = compound: CCn1c(-c2nonc2N)nc2c(C#CC(C)(C)O)ncc(OC[C@H]3CCCNC3)c21 + CC(=O)c1c(C)c2cnc(Nc3ccc(N4CCNCC4)cn3)nc2n(C2CCCC2)c1=O [Palbociclib] (partner 0.5 µM)
Outline: as §1

[2] = compound: CCn1c(-c2nonc2N)nc2c(C#CC(C)(C)O)ncc(OC[C@H]3CCCNC3)c21 + CC1(C)CCC(c2ccc(Cl)cc2)=C(CN2CCN(c3ccc(C(=O)NS(=O)(=O)c4ccc(N[C@H](CCN5CCOCC5)CSc5ccccc5)c(S(=O)(=O)C(F)(F)F)c4)cc3)CC2)C1 [Navitoclax] (partner 0.5 µM)
Outline: as §1

[3] = compound: CCn1c(-c2nonc2N)nc2c(C#CC(C)(C)O)ncc(OC[C@H]3CCCNC3)c21 + C[C@]1(O)C[C@@H](c2nc(-c3ccc4ccc(-c5ccccc5)nc4c3)c3c(N)nccn32)C1 [Linsitinib] (partner 1 µM)
Outline: as §1

| Cell Line | relative viability (BAM7 + Tozasertib; first compound 0.5 µM) | relative viability (BAM7 + Tozasertib; first compound 5 µM) | relative viability (BAM7 + Tozasertib; first compound 15.81 µM) | relative viability (BAM7 + Tozasertib; first compound 50 µM) | relative viability ([1]; first compound 0.01 µM) | relative viability ([1]; first compound 0.1 µM) | relative viability ([1]; first compound 0.3162 µM) | relative viability ([1]; first compound 1 µM) | relative viability ([2]; first compound 0.01 µM) | relative viability ([2]; first compound 0.03162 µM) | relative viability ([2]; first compound 0.1 µM) | relative viability ([2]; first compound 0.3162 µM) | relative viability ([2]; first compound 1 µM) | relative viability ([3]; first compound 0.01 µM) | relative viability ([3]; first compound 0.03162 µM) | relative viability ([3]; first compound 0.1 µM) | relative viability ([3]; first compound 0.3162 µM) | relative viability ([3]; first compound 1 µM) | relative viability ([1]; first compound 0.03162 µM) |
| --- | --- | --- | --- | --- | --- | --- | --- | --- | --- | --- | --- | --- | --- | --- | --- | --- | --- | --- | --- |
| NCI-H2087 | 0.227 | 0.244 | 0.211 | 0.205 | 0.214 | 0.225 | 0.248 | 0.293 | 0.832 | 1.08 | 0.961 | 1.03 | 1.02 | 0.966 | 0.746 | 0.932 | 0.924 | 0.838 |  |
| LC-2-ad | 0.501 | 0.424 | 0.466 | 0.451 | 0.547 | 0.546 | 0.502 | 0.462 | 0.56 | 0.417 | 0.579 | 0.419 | 0.487 | 0.878 | 0.919 | 0.836 | 0.849 | 0.875 | 0.455 |
| NCI-H1915 | 0.443 | 0.4 | 0.405 | 0.399 | 0.488 | 0.531 | 0.487 | 0.537 | 0.821 | 0.778 | 0.79 | 0.488 | 0.76 | 1.08 | 1.1 | 1.05 | 1.12 | 1.08 | 0.545 |
| NCI-H1793 | 0.274 | 0.269 | 0.223 | 0.262 | 0.295 |  | 0.295 | 0.315 | 0.381 | 0.462 | 0.465 | 0.375 | 0.41 | 0.761 | 0.835 | 0.756 | 0.851 | 0.806 | 0.326 |
| NCI-H2023 | 0.234 | 0.161 | 0.125 | 0.177 | 0.357 | 0.331 | 0.205 | 0.262 | 1.02 | 0.98 | 0.972 | 0.932 | 1.01 | 0.683 | 0.664 | 0.708 | 0.446 | 0.569 | 0.379 |
| COR-L 105 | 0.359 | 0.435 | 0.357 | 0.359 | 0.401 | 0.419 | 0.39 | 0.42 | 0.613 | 0.715 | 0.74 | 0.67 | 0.654 | 1.1 | 0.848 | 1.29 | 0.747 | 0.81 | 0.37 |
| RERF-LC-KJ | 0.413 | 0.264 | 0.231 | 0.249 | 1.02 | 1.02 | 0.915 | 1.05 | 0.944 | 1.04 | 0.773 | 1.17 | 0.791 | 0.91 | 0.871 | 0.855 | 0.856 | 0.903 | 1.06 |
| LXF-289 | 0.206 | 0.215 | 0.183 | 0.19 | 0.63 | 0.608 | 0.581 | 0.605 | 0.978 | 0.949 | 0.935 | 0.886 | 0.926 | 0.971 | 0.945 | 0.96 | 0.882 | 0.951 | 0.568 |
| PC-14 | 0.58 | 0.595 | 0.591 | 0.557 | 0.581 | 0.542 | 0.476 | 0.516 | 1.04 | 1.02 | 0.976 | 0.875 | 1.08 | 0.967 | 0.975 | 0.963 | 0.849 | 0.919 | 0.543 |
| NCI-H1666 | 0.586 | 0.57 | 0.613 | 0.591 | 0.615 | 0.645 | 0.626 | 0.636 | 0.881 | 0.835 | 0.699 | 0.904 | 0.871 | 0.805 | 0.92 | 0.928 | 0.732 | 0.738 | 0.647 |
| NCI-H2085 | 0.608 | 0.496 | 0.401 | 0.567 | 0.49 | 0.481 | 0.455 | 0.48 | 1.12 | 1.09 | 1.1 | 1.08 | 1.07 | 0.843 | 0.91 | 0.804 | 0.879 | 0.921 | 0.426 |
| NCI-H1734 | 0.289 | 0.253 | 0.246 | 0.248 | 0.375 | 0.306 | 0.303 | 0.33 | 0.781 | 0.921 | 0.814 | 0.821 | 0.816 | 0.872 | 0.879 | 0.782 | 0.817 | 0.884 | 0.332 |
| NCI-H2126 | 0.836 | 0.679 | 0.643 | 0.74 | 0.325 | 0.365 | 0.335 | 0.377 | 0.908 | 0.848 | 0.847 | 0.927 | 0.88 | 0.751 | 0.716 | 0.695 | 0.671 | 0.788 | 0.319 |
| EMC-BAC-2 | 0.302 | 0.291 | 0.289 | 0.272 | 0.497 | 0.504 | 0.5 | 0.471 | 1.17 | 1.18 | 1.15 | 1.07 | 1.13 | 0.82 | 0.852 | 0.837 | 0.828 | 0.837 | 0.506 |
| NCI-H1993 | 0.564 | 0.639 | 0.582 | 0.505 | 0.55 | 0.628 | 0.659 | 0.542 | 0.943 | 1.01 | 1.04 | 0.767 | 0.961 | 0.774 | 0.736 | 0.758 | 0.731 | 0.767 | 0.642 |
| NCI-H520 | 0.416 | 0.51 | 0.436 | 0.405 | 0.185 | 0.164 | 0.153 | 0.165 | 1.05 | 1.11 | 1.05 | 0.934 | 0.797 | 1.03 | 1.07 | 0.849 | 0.795 | 0.674 | 0.2 |
